Data published in patent US4154852A, “Novel aminobenzocycloheptenes” (Roussel Uclaf, priority 1976, dated 1979).

Experiments:
effects of L-dopa = assay: Potentialization of effects of L-dopa in iproniazide-pretreated mice; format: in vivo; settings: Mus musculus, ip; i.p. one hour before L-dopa 100 mg/kg i.p.; iproniazide 75 mg/kg i.p. 18 hours before; male mice; read-out: ED50 (dose which potentializes by 50% the L-dopa effects)
Description: The administration of L-dopa to mice pretreated 18 hours previously with iproniazide produced certain number of symptoms; muscular hypertonicity, hyperactivity, agitation, crying, aggressiveness, salivation and exophthalmy. The intensity of these effects is potentialized by administration of an antidepressant one hour before the administration of L-dopa. Male mice received intraperitoneally 75 mg/kg of iproniazide 18 hours before the start of the test and the tested product was intraperitoneally administered in aqueous solution in increasing doses. One hour later, L-dopa was intraperitoneally administered at a dose of 100 mg/kg and the different symptoms were observed 15 and 30 minutes later. They were evaluated on a scale of 0 to 3 for each animal and the totals for each dose were determined.

[1] = tested on: effects of nialamide (monoamine oxidase inhibitor); assay: Potentialization of effects of monoamine oxidase inhibitor (nialamide) in mice, actimetric measurement; format: in vivo; settings: nialamide 100 mg/kg i.p. 30 minutes before, 6 hours
Description: The administration of a monoamine oxidase inhibitor to mice induces a hyperactive movement of the animals which is able to be potentialized by an antidepressant. Using the procedure of Carlsson et al [Brain Research, Vol. 12 (1969), p. 456], a dose of 100 mg/kg of nialamide was intraperitoneally administered to mice 30 minutes before the intraperitoneal administration of the tested product and the values of actimetric measurements were recorded every 30 minutes for 6 hours. Potentialization of the effects of nialamide for the tested product was expressed in increasing number of + signs for a determined dose in mg/kg.

[2] = tested on: 5-hydroxytryptophane (5 HTP) effects; assay: Potentialization of 5 HTP effects (trembling) in mice; format: in vivo; settings: Mus musculus, i.p. one hour before 200 mg/kg 5-HTP i.p., observed every 15 minutes for one hour, read-out: MAD (minimum active dose), potentialization of 5 HTP effects
Description: The administration of 5-hydroxytryptophane (5 HTP) to mice pretreated with an antidepressant induces in the mice a particular behaviour namely the appearance of trembling.
The test product was intraperitoneally administered in increasing doses one hour before the intraperitoneal administration of 200 mg/kg of 5-HTP and the symptoms were observed were noted every 15 minutes for one hour to determine the minimum active dose (MAD) of the test product.

uptake of 14C-5HT = assay: Inhibition of serotonine uptake in vivo (synaptosomes prepared after administration to rats); design: key: the activity was expressed in increasing number of + signs; ++: the activity was expressed in increasing number of + signs; +++: the activity was expressed in increasing number of + signs; settings: 5 to 20 mg/kg i.p., female rats 19 to 21 days old, brain removed after 30 minutes
Description: (§1) The inhibition of serotonine (5HT) uptake was measured in impure synaptosomes prepared from the entire brain of a female rat 19 to 21 days old using the technique of Kannengiesser et al. [Biochemical Pharmacology,Vol. 22, (1973) p. 73]. Diverse concentrations of the products were placed in an incubator with the preparation at 37° C. for 5 minutes in the presence of 14 C-5HT at a concentration of 10^-7 M. The 50% inhibiting concentration (IC50), dose which inhibits by 50% the uptake of 14C-5HT in the synaptosomes was determined graphically and the IC50 dose for the compounds is reported in Table V.
The tested products were intraperitoneally administered to groups of female rats 19 to 21 days old at doses of 5 to 20 mg/kg. After 30 minutes, the brain was removed and synaptosomes were prepared and placed in an incubator in the presence of 14 C-5HT as indicated in the previous test.

Acute toxicity in mice = settings: mouse, in vivo, ip, intraperitoneal, determined 48 hours later, read-out: DL50 (dose which kills 50% of mice)
Description: The DL50 dose which kills 50% of mice after intraperitoneal administration of the tested compound was determined 48 hours later and the DL50 for the compounds is reported in Table IV.

serotonine (5HT) uptake = assay: Inhibition of serotonine uptake in vitro (14C-5HT, impure brain synaptosomes); format: biochemical, female rat; settings: rat brain synaptosomes, 37° C., 5 minutes, 14 C-5HT 10^-7 M; read-out: Test in vitro I.C. 50 (inhibition of 14C-5HT uptake)
Description: as §1

SMILES | ED50 (effects of L-dopa) | Potentialization of Nialamide ([1]; tested product 5 mg/kg i.p.) | Potentialization of Nialamide ([1]; tested product 20 mg/kg i.p.) | minimal effective dose [2] | In vivo Test (relative power to inhibit the uptake of 14C-5HT) (uptake of 14C-5HT) | LD50 at 48 h (Acute toxicity in mice) | IC50 (serotonine (5HT) uptake) | Potentialization of Nialamide ([1]; tested product 1 mg/kg i.p.)
CNC1C=Cc2cc([N+](=O)[O-])ccc2CC1.Cl (stereo not shown) [Example 1, 2-nitro-7-methylamino-6,7-dihydro [5H] benzocycloheptene hydrochloride] | 1 mg/kg | + | ++ | 10 mg/kg | +++ | 75 mg/kg | 320 nM | 
CNC1C=Cc2cc(N)ccc2CC1.O=C(O)/C=C/C(=O)O (stereo not shown) [Example 2, 2-amino-7-methylamino-6,7-dihydro [5H] benzocycloheptene fumarate] | 10 mg/kg | + | ++ | 5 mg/kg | + | 75 mg/kg | 4000 nM | 
CNC1C=Cc2cc(OC)ccc2CC1.Cl (stereo not shown) [Example 3, 2-methoxy-7-methylamino-6,7-dihydro [5H] benzocycloheptene hydrochloride] | 5 mg/kg | ++ |  |  | ++ | 50 mg/kg | 270 nM | +
CNC1C=Cc2cc(O)ccc2CC1.Cl (stereo not shown) [Example 4, 7-methylamino-6,7-dihydro [5H] benzocycloheptene-2-ol hydrochloride] |  |  |  |  |  | 50 mg/kg | 380 nM | 
